Source: US9259432B1, “Composition and methods for targeted delivery of a therapeutic compound to the brain or spinal cord of a subject for treatment of neurodegenerative diseases” (Parminder J. S. Vig, priority 2011, dated 2016)

System: SHSY5Y cells
Experiment: 488-S100B uptake in SHSY5Y cells
Type: cell-based
Settings: then 1 μM 488-S100B 3 hrs
Description: FIG. 14: (a) WT SHSY5Y cells were placed on chamber slides and pretreated with 50 μM Synb1-ELP-TRTK or Synb1-ELP-GGC for 1 hr at 37° C. Next, cells were washed then treated with 1 μM 488-S100B for 3 hrs followed by washing, fixation and DAPI staining. Shown is DAPI nuclear stain in blue and 488-S100B in green. Scale bar: 10 μm. (b) SHSY5Y cells were placed on 6-well plates and pretreated with 50 μM Synb1-ELP-TRTK12 or Synb1-ELP-GGC for 1 hr at 37° C. then treated with 1 μM 488-S100B for 3 hrs, then cells were removed and 488-S100B uptake was measured using flow cytometry. Data is shown as MEAN±STDEV of the % Uptake relative to the control. Statistics were taken using student's t-test. *P<0.05.
SHSY5Y cells (Invitrogen, Carlsbad, Calif., USA) were maintained in DMEM/F12 media (Fisher, Houston, Tex., USA) supplemented with 15% FBS, penicillin-streptomycin (Sigma), and grown in an incubator at 37° C. in the presence of 5% CO2. […] Next, cells were washed then treated with 1 μM 488-S100B for 3 hrs and S100B uptake was analyzed by Epi-fluorescence or by Beckman Cytometric FC 500 flow cytometer as previously described (Bidwell et al., 2009). For flow cytometry experiments, 488-S100B uptake was measured by quenching extracellular fluorescence by coating the cells with Trypan Blue (Fisher) as described previously (Bidwell et al., 2009). […]

In the case of “Synb1-ELP-TRTK: thermally responsive S100B inhibitory polypeptide: Synb1 cell penetrating peptide, elastin-like polypeptide (ELP) and TRTK12 peptide fused”, the “488-S100B uptake, epi-fluorescence” value (50 μM pretreatment 1 hr at 37° C.) was “reduced 488-S100B cellular uptake” and the “488-S100B uptake, flow cytometry” value (50 μM pretreatment 1 hr, vs Control and Synb1-ELP-GGC pretreated cells) was “significantly reduced 488-S100B uptake”.
